{"source": "patent US4073938A", "about": "“19,20-Bis-nor-prostenoic acids as hypolipemic compounds” (Istituto Biochimico Italiano di Loredana Lorenzini S.a.s., priority 1974, dated 1978)", "experiment": "Deepness and rapidity test (untitled table 6)", "type": "in vivo, Male Sprague-Dawley rats", "settings": "200 mg/kg endoperitoneal; for Rapidity ± E.S.: controls 3.4 ± 0.3; for Deepness (mm ± E.S.): controls 74.9 ± 6.2", "method": "| Treatment with the dose of 200 mg/kg endoperitoneal, one or two hours | before sacrifice. Male Sprague-Dawley rats with an average weight of 150 | gr.", "note": "Structures can show the parent of a compound that is named as a salt."}
{"smiles": "CCCCCCC1CCC(O)C1CCCCCCC(=O)O", "note": "(stereo not shown) [Compound C83, 9-hydroxy-19,20-bis-nor-prostanoic acid sodium salt]", "values": [{"measurement": "Rapidity ± E.S.", "setting": "1 hour before sacrifice", "value": "1.6 ± 0.2"}, {"measurement": "Deepness (mm ± E.S.)", "setting": "1 hour before sacrifice", "value": "29.1 ± 3.6", "unit": "mm"}, {"measurement": "Rapidity ± E.S.", "setting": "2 hours before sacrifice", "value": "3.3 ± 0.7"}, {"measurement": "Deepness (mm ± E.S.)", "setting": "2 hours before sacrifice", "value": "67.3 ± 12.6", "unit": "mm"}]}
